In patent US20110319338A1, “PEPTIDES THAT BIND EUKARYOTIC TRANSLATION INITIATION FACTOR 4E” (The Board of Regents of the University of Texas System, priority 2008, published 2011):
Square brackets hold non-standard residues; d marks the D form. Ends that are not written are not given here.

Tested on: GnRH-RI-positive and -negative lines
Assay: Cell viability assay across cell lines
Assay type: cell-based
Conditions: 3 days
Method: FIGS. 3A-3H. Uptake, binding and inhibitory effects of [DLys6]GnRH-4EBP fusion peptides. (FIG. 3A) Sequences of [DLys6]GnRH, and wild-type and mutant 4EBP1 peptides fused to the agonist. (FIG. 3B) Western blot of GnRH-RI levels in OVCAR-3, ES-2, MDA-MB-231, BJ, HUVEC and SKOV3 cells. (FIG. 3C) Detection of biotinylated peptides in OVCAR-3 and SKOV3 by Texas Red-conjugated streptavidin at 16 hours after peptide addition (3 micromoles per liter). In (FIGS. 3D and 3E), biotinylated peptides were incubated with OVCAR-3 cell lysate as described in FIG. 1. In (FIG. 3D), peptide was pulled down using streptavidin-agarose. Precipitates (P) and supernatants (S) were analyzed by Western blot using eIF4E antibody. In (FIG. 3E), immunoprecipitation was performed using eIF4E antibody, and Western blot performed using eIF4G antibody. […]
FIGS. 14A-14B. […] Viability of cells at 3 days after peptide addition was measured by crystal violet staining and is expressed relative to viability of cells incubated with no peptide. […] Staining of cells with FITC-Annexin V and PI was analyzed by flow cytometry.
Cell viability and TUNEL assays. […] Cells were stained with 0.5% crystal violet solution, and absorbance measured at 570 nm. […] Cells were fixed in 70% ethanol and the extent of apoptosis was determined by flow cytometric analysis of TUNEL-staining using the APO-BRDU kit (Phoenix Flow Systems, San Diego Calif.). […]

Substance: [DLys6]GnRH: GnRH agonist with a D-amino acid substitution at position 6; GnRH-RI-targeting moiety (QHWSY[dK]LRPG; not fully specified (residue 1, C-terminus); ends and bridges not checked)
- cell growth across lines: did not significantly inhibit cell growth
